In US11207289B2, “Use of benzofuran lignans to induce IL-25 expression and suppress mammary tumor metastasis” (ACADEMIA SINICA, priority 2016, dated 2021):

How the values were obtained:
4T1-Luc2 cells = experiment: 4T1-Luc2 mammary carcinoma tumor resection model: metastasis and survival; assay type: in vivo, BALB/c mice
Description: BALB/c mice were subcutaneously injected with 4T1-Luc2 cells (5×10^5/100 μl PBS/mouse) into the fourth mammary fat pad under isoflurane anesthesia. Tumor growth was monitored by measuring the tumor volume according to the formula: volume=length×(width)^2/2. After tumors were established (180-200 mm^3) on day 14, test mice were divided into different groups (8 mice/group) and subjected to different treatments. At 15 days post tumor cell implantation, primary 4T1 tumors in situ were surgically removed by a tumor resection process. For drug treatment, mice were administered with different agents, including vehicle-control (PBS), mouse IL-25 protein (10 μg/kg, ProSpec, Vineland, N.J.), Q2-3 (2, […]; […]), by intravenous injection for 3 weeks (3 injections/week) post tumor resection. For in vivo neutralization of mouse IL-25 activity, mice were treated intraperitoneally with either 100 μg anti-mouse IL-25 (IL-17E) antibody (clone 35B; Biolegend) or isotype control rat IgG (100 μg; rat, IgG1κ; Biolegend) at days 0, 3, 6, 9, 12, 15, 18 post tumor resection. To detect metastasis of human MDA-MD-231-Luc2 tumor cells, nude mice were injected subcutaneously with 5×10^5 MDA-MD-231-Luc2 cells into the mammary fat pad under isoflurane anesthesia. After tumors were established (250-350 mm^3) on day 24, test mice were divided into different groups (8 mice/group) and subjected to different treatments. At 25 days post tumor cell implantation, primary MDA-MD-231-Luc2 tumors in situ were surgically removed by a tumor resection process. […] Bioluminescence signals from the 4T1-luc2 tumor cells in test mice were analyzed using a non-invasive IVIS imaging system (Calipers, Hopkinton, Mass.) after intraperitoneal injection of 150 mg/kg D-luciferin (NanoLight technology, Pinetop, Ariz.).
Statistical analysis was performed using an unpaired, two-tailed Student's t-test. […] Differences in tumor metastasis or mouse survival rate were determined by a log-rank (Mantel-Cox) test of the Kaplan-Meier curves. […]

IL-25 = IL-25 expression in lung fibroblasts, 4T1 tumor resection model (IF staining, flow cytometry); assay type: in vivo, mice
Description: BALB/c mice were subcutaneously injected with 4T1-Luc2 cells (5×10^5/100 μl PBS/mouse) into the fourth mammary fat pad under isoflurane anesthesia. Tumor growth was monitored by measuring the tumor volume according to the formula: volume=length×(width)^2/2. After tumors were established (180-200 mm^3) on day 14, test mice were divided into different groups (8 mice/group) and subjected to different treatments. At 15 days post tumor cell implantation, primary 4T1 tumors in situ were surgically removed by a tumor resection process. For drug treatment, mice were administered with different agents, including vehicle-control (PBS), mouse IL-25 protein (10 μg/kg, ProSpec, Vineland, N.J.), Q2-3 (2, 20 or 100 μg/kg) or docetaxel (2 mg/kg; Sigma-Aldrich), by intravenous injection for 3 weeks (3 injections/week) post tumor resection. For in vivo neutralization of mouse IL-25 activity, mice were treated intraperitoneally with either 100 μg anti-mouse IL-25 (IL-17E) antibody (clone 35B; Biolegend) or isotype control rat IgG (100 μg; rat, IgG1κ; Biolegend) at days 0, 3, 6, 9, 12, 15, 18 post tumor resection. To detect metastasis of human MDA-MD-231-Luc2 tumor cells, nude mice were injected subcutaneously with 5×10^5 MDA-MD-231-Luc2 cells into the mammary fat pad under isoflurane anesthesia. After tumors were established (250-350 mm^3) on day 24, test mice were divided into different groups (8 mice/group) and subjected to different treatments. At 25 days post tumor cell implantation, primary MDA-MD-231-Luc2 tumors in situ were surgically removed by a tumor resection process. For drug treatment, mice were administered with PBS (vehicle-control), Q2-3 (100 μg/kg), docetaxel (5 mg/kg) or Q2-3 (100 μg/kg)+docetaxel (5 mg/kg), by intravenous injection for 3 weeks (3 injections/week) post tumor resection. To monitor the progression of mouse (4T1) or human (MDA-MD-231) metastatic tumors, test mice treated with different drugs/agents were compared for their tumor metastatic activity and survival rate aftern another 8 weeks. Bioluminescence signals from the 4T1-luc2 tumor cells in test mice were analyzed using a non-invasive IVIS imaging system (Calipers, Hopkinton, Mass.) after intraperitoneal injection of 150 mg/kg D-luciferin (NanoLight technology, Pinetop, Ariz.).
Lung tissue specimens obtained from each tumor-resected mouse were fixed with 4% formalin and embedded in paraffin. For histological comparison, 6 μm-thick tissue sections were made and stained with hematoxylin and eosin (H&E). For immunofluorescence staining, fixed tissue sections were initially immersed in boiling sodium citrate buffer (0.01 M sodium citrate buffer, pH 6.0) for 30 min Lung tissue sections were blocked with 5% nonfat milk, and incubated with anti-FSP-1 antibody (1:200 dilution; Millipore), FITC-conjugated anti-CD206 antibody (1:200 dilution; Biolegend) or PE-conjugated anti-IL-25 antibody (1:100; R&D) in 1% nonfat milk for 1 hour at room temperature. Sections were then washed with PBS containing 0.1% Tween 20. To detect primary antibodies, some sections were incubated with FITC-conjugated anti-mouse-IgG (1:200; Jackson Immunoresearch, West Grove, Pa.) for FSP-1. 4′,6-Diamidino-2-phenylindole dihydrochloride (1 μg/ml; Sigma-Aldrich) was used to stain the nuclei. Fluorescence microscopy evaluation of immunostained tissue sections was performed using a Zeiss Axiovert 200 M microscope (Carl Zeiss, Heidelberg, Germany) Images were captured with a digital camera (Orca ER, Hamamatsu) and processed using Axiovision 4.6.3 (Carl Zeiss).
For detection of myeloid derived suppressor cells (MDSCs), cells from mouse lung tissue in each group were collected and stained for 30 min at 4° C. with antibodies against specific cell markers, including FITC-conjugated anti-mouse CD11b (for cell surface), APC-Cy7 conjugated anti-mouse Ly-6C and PE conjugated anti-mouse Ly-6G, (both for intracellular staining). All three antibodies were obtained from Biolegend, (San Diego, Calif.). […]

COC(=O)/C=C/c1cc(O)c2c(c1)C(C(=O)OC)C(c1ccc(O)c(O)c1)O2 (stereo not shown) [Q2-3, methyl(E)-3-[2-(3,4-dihydroxyphenyl)-7-hydroxy-3-methoxycarbonyl-2,3-dihydro-1-benzofuran-5yl]-prop-2-enoate]
survival rate of tumor-resected mice (4T1-Luc2 cells; 4T1 tumor resection model): significantly increased
metastasis of 4T1 cells to the lung (luminescent activity) (4T1-Luc2 cells; ≥20 μg/kg i.v., 3 injections/week for 3 weeks post tumor resection): significantly suppress
anti-metastatic activity compared with doxorubicin (2 mg/kg) (4T1-Luc2 cells; ≥20 μg/kg, luciferase activity): much higher anti-metastatic activity than treatment with doxorubicin
total FSP-1+ER-TR7+ fibroblast population in lung (IL-25; 3 weeks post tumor resection, PBS control 5.2%): 7.3%
cell population of IL-25+ fibroblasts (FSP-1+ER-TR7+IL-25+ cells) in lung (IL-25; 3 weeks post tumor resection, PBS control 16.7%): 79.5%
IL-25 expression in lung fibroblasts (IF staining) (IL-25; Q2-3 100 μg/kg, 21 days post tumor resection): readily detectable stimulatory effect
increase in FSP-1+IL-25+ fibroblast population in spleen or other tissues (IL-25; data not shown): not detected
